According to PubChem BioAssay AID1963872 (Molecular Pharmacology Branch, DTP, NCI, 2024):

System: KRAS patient-derived spheroids with HUVEC/MSC, viability
Test: Anticancer human tumor 519858-162-T-J1-PDC patient-derived colon adenocarcinoma cell line growth inhibition [KRAS2]
Details: for IC50: curve of first compound; for viability, T/C: stronger effect = lower value
Method in brief: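 Combination screen of spheroid viability in tumor-cell co-cultures with endothelial (HUVEC) and mesenchymal stem cell stroma. Each agent was tested in half-log dilutions, topping at clinical Cmax or at 10 microM without a known Cmax.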

[1] = second compound 0.1 µM, first compound 0.0316 µM
[2] = second compound 0.1 µM, first compound 0.1 µM
[3] = second compound 0.1 µM, first compound 0.316 µM
[4] = second compound 0.1 µM, first compound 1 µM
[5] = second compound 0.1 µM, first compound 3.16 µM
[6] = second compound 0.1 µM, first compound 10 µM
[7] = second compound 0.316 µM, first compound 0.0316 µM
[8] = second compound 0.316 µM, first compound 0.1 µM
[9] = second compound 0.316 µM, first compound 0.316 µM
[10] = second compound 0.316 µM, first compound 1 µM
[11] = second compound 0.316 µM, first compound 3.16 µM
[12] = second compound 0.316 µM, first compound 10 µM
[13] = second compound 1 µM, first compound 0.0316 µM
[14] = second compound 1 µM, first compound 0.1 µM
[15] = second compound 1 µM, first compound 0.316 µM
[16] = second compound 1 µM, first compound 1 µM
[17] = second compound 1 µM, first compound 3.16 µM
[18] = second compound 1 µM, first compound 10 µM
[19] = second compound 3.16 µM, first compound 0.0316 µM
[20] = second compound 3.16 µM, first compound 0.1 µM
[21] = second compound 3.16 µM, first compound 0.316 µM
[22] = second compound 3.16 µM, first compound 1 µM
[23] = second compound 3.16 µM, first compound 3.16 µM
[24] = second compound 3.16 µM, first compound 10 µM
[25] = second compound 10 µM, first compound 0.0316 µM
[26] = second compound 10 µM, first compound 0.1 µM
[27] = second compound 10 µM, first compound 0.316 µM
[28] = second compound 10 µM, first compound 1 µM
[29] = second compound 10 µM, first compound 3.16 µM
[30] = second compound 10 µM, first compound 10 µM
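Also: compound exposure lasted seven days before readout.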
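For viability, T/C in this document: 100% = DMSO vehicle control viability.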

Row | SMILES | IC50 (second compound 0.1 µM) [µM] | IC50 (second compound 0.316 µM) [µM] | IC50 (second compound 1 µM) [µM] | IC50 (second compound 3.16 µM) [µM] | IC50 (second compound 10 µM) [µM] | viability, T/C [1] [%] | viability, T/C [2] [%] | viability, T/C [3] [%] | viability, T/C [4] [%] | viability, T/C [5] [%] | viability, T/C [6] [%] | viability, T/C [7] [%] | viability, T/C [8] [%] | viability, T/C [9] [%] | viability, T/C [10] [%] | viability, T/C [11] [%] | viability, T/C [12] [%] | viability, T/C [13] [%] | viability, T/C [14] [%] | viability, T/C [15] [%] | further results
1 | COc1cc(Nc2ncc3c(n2)-c2ccc(Cl)cc2C(c2c(F)cccc2OC)=NC3)ccc1C(=O)O + CNCc1ccccc1-c1csc(C(C)Nc2nc(C)nc3cc(OC)c(OC)cc23)c1 | > 10 | > 10 | > 10 | > 10 | < 0.0316 | 95.9 | 93.5 | 79.1 | 85 | 88.4 | 103 | 96.5 | 91.5 | 56.2 | 78.6 | 87.6 | 71.2 | 77.2 | 78.2 | 73 | viability, T/C [16]: 70%; viability, T/C [17]: 71.2%; viability, T/C [18]: 62.1%; viability, T/C [19]: 58.2%; viability, T/C [20]: 54.6%; viability, T/C [21]: 60.9%; viability, T/C [22]: 65.6%; viability, T/C [23]: 74.2%; viability, T/C [24]: 67.4%; viability, T/C [25]: 0.42%; viability, T/C [26]: 0.37%; viability, T/C [27]: 0.36%; viability, T/C [28]: 0.31%; viability, T/C [29]: 0.37%; viability, T/C [30]: 0.84%
2 | COC(=O)c1ccc2c(C(=Nc3ccc(N(C)C(=O)CN4CCN(C)CC4)cc3)c3ccccc3)c(O)[nH]c2c1 + CNCc1ccccc1-c1csc(C(C)Nc2nc(C)nc3cc(OC)c(OC)cc23)c1 | > 10 | > 10 | > 10 | 2.34 | < 0.0316 | 96.8 | 83.2 | 77.4 | 100 | 92.4 | 73.3 | 58.2 | 91.8 | 57 | 89.9 | 90.5 | 92 | 66.9 | 110 | 103 | viability, T/C [16]: 57.1%; viability, T/C [17]: 64.7%; viability, T/C [18]: 70.4%; viability, T/C [19]: 59.4%; viability, T/C [20]: 128%; viability, T/C [21]: 73.3%; viability, T/C [22]: 74.8%; viability, T/C [23]: 40%; viability, T/C [24]: 37.6%; viability, T/C [25]: 0.86%; viability, T/C [26]: 0.39%; viability, T/C [27]: 0.42%; viability, T/C [28]: 0.31%; viability, T/C [29]: 0.28%; viability, T/C [30]: 1.62%
3 | O=C(c1cc(Cc2n[nH]c(=O)c3ccccc23)ccc1F)N1CCN(C(=O)C2CC2)CC1 + CNCc1ccccc1-c1csc(C(C)Nc2nc(C)nc3cc(OC)c(OC)cc23)c1 | > 10 | > 10 | > 10 | > 10 | < 0.0316 | 78.8 | 93.4 | 86.4 | 82.6 | 78.9 | 115 | 105 | 105 | 97.8 | 75.8 | 70.9 | 82.4 | 132 | 92.3 | 77 | viability, T/C [16]: 127%; viability, T/C [17]: 91.8%; viability, T/C [18]: 115%; viability, T/C [19]: 60.3%; viability, T/C [20]: 52.2%; viability, T/C [21]: 59.5%; viability, T/C [22]: 70.5%; viability, T/C [23]: 76.8%; viability, T/C [24]: 64.6%; viability, T/C [25]: 0.49%; viability, T/C [26]: 0.38%; viability, T/C [27]: 0.54%; viability, T/C [28]: 0.33%; viability, T/C [29]: 0.44%; viability, T/C [30]: 0.38%
4 | CC1(C)CCC(CN2CCN(c3ccc(C(=O)NS(=O)(=O)c4ccc(NCC5CCOCC5)c([N+](=O)[O-])c4)c(Oc4cnc5[nH]ccc5c4)c3)CC2)=C(c2ccc(Cl)cc2)C1 + COc1cc2nc(C)nc(NC(C)c3cc(N)cc(C(F)(F)F)c3)c2cc1OC1CCOC1 | > 10 | > 10 | 5.24 | 6.2 | 2.66 | 105 | 85.7 | 74.5 | 82.5 | 73.6 | 101 | 116 | 92.4 | 92.3 | 78.9 | 76.5 | 52.5 | 73.7 | 79.9 | 98.9 | viability, T/C [16]: 80.5%; viability, T/C [17]: 66.8%; viability, T/C [18]: 28.6%; viability, T/C [19]: 63.5%; viability, T/C [20]: 63.3%; viability, T/C [21]: 82%; viability, T/C [22]: 69.5%; viability, T/C [23]: 73%; viability, T/C [24]: 35.8%; viability, T/C [25]: 82.1%; viability, T/C [26]: 60.9%; viability, T/C [27]: 92.9%; viability, T/C [28]: 78.6%; viability, T/C [29]: 45%; viability, T/C [30]: 37.8%
